Data published in patent publication US20160237406A1, “SEBOCYTES, SEBOCYTE CELL LINES AND APPLICATIONS THEREOF” (priority 2001, published 2016).

Test system: immortalized sebocytes (SZ95) and clones
Test: Growth behavior / cell proliferation test (4-methylumbelliferyl heptanoate fluorescence assay)
Assay type: cell-based, human
Details: for proliferation response of clones stimulated by retinoids: other clones, corresponds to response of normal human epidermal keratinocytes; for proliferation response of clones stimulated by retinoids / proliferation response of clones inhibited by retinoids: 10^-7 M retinoid, 9 days, FIG. 9; for proliferation response of clones inhibited by retinoids: some clones, order 13-cis-retinoic acid>all-trans-retinoic acid>>Acitretin
Procedure: _Cells were seeded in 96 well culture plates at densities of 0.5 to 4×10^3 cell/well. Cell proliferation was assessed by the 4-methylumbelliferylheptanoatefluorescence assay and measured automatically (Zouboulis et al. Melanoma. Res. 1991; 1:91-95).
To this extent, on the day of evaluation, the culture medium was removed, the cells were washed twice with PBS and […] 100 μg solution of 4-methylumbelliferyl heptanoate (Sigma, Deisenhofen, Germany) in PBS were added to each well. The plates were then incubated at 37° C. for 30 minutes and released fluorescence was measured by a suitable fluorescence measuring device (Titertec-Fluoroscan II; Flow, Meckenheim, Germany). Fluorescence units were obtained at 355 nm excitation and 460 nm emission filters.
_5α-dihydrctestosterone (5α-DHT; Sigma) was dissolved in DMSO and subsequently in serum-free, phenol-free modified DMEM/Ham's F12-Medium (1:1) (Gibco-BRL) with 2 mM n-Acetyl-L-alanyl-L-glutamine which was supplemented with 5 ng/ml EGF, 50 μg/ml bovine pituary extract, 1 mg/ml fatty acid-free bovine serum albumine (Boehringer Mannheim) and 50 μg/ml gentamycine to obtain a final concentration of 10^−6 M 5α-DHT and 0.1% DMSO. 0.1% DMSO alone served as a control. The cells (0.5 to 2×10^3/well) were treated with 5α-DHT for 18 days.
For the treatment with retinoids, all-trans-retinoic acid, 13-cis-retinoic acid and acitretin were dissolved in DMSO and subsequently placed in serum-free modified DME-Medium/Ham's F12-Medium (1:1) with […] N-Acetyl-L-alanyl-L-glutamine which was supplemented with 5 ng/ml EGE, 50 μg/ml bovine pituary extract, 1 mg/ml fatty acid-free bovine serum albumine and 50·μg/ml gentamycine to obtain a final concentration of 10^−7 M retinoid and 0,1% DMSO. 0,1% DMSO alone served as a control. Retinoids were handled under dim amber light. The cells (0.5 to 1×10^3/well) were treated with the retinoids for 9 days.

C[C@]12CCC(=O)C[C@@H]1CC[C@@H]1[C@@H]2CC[C@]2(C)[C@@H](O)CC[C@@H]12 [5α-DHT, 5α-dihydrctestosterone]
effect on proliferation of the cells (10^-6 M 5α-DHT, serum-free medium, after the 8th day, vs control (p<0.05; p<0.01), FIG. 8): increased the proliferation of the cells significantly | population doubling time (exemplary sebocyte clone, seeding 2.000/well, serum-free medium supplemented with 10^-6 M 5α-DHT, 18 days, control 136 hours): 53.7 h

CC1=C(/C=C/C(C)=C/C=C/C(C)=C\C(=O)O)C(C)(C)CCC1 [13-cis-retinoic acid]
proliferation response of clones stimulated by retinoids (serum-free medium): stimulated in proliferation | proliferation response of clones inhibited by retinoids (serum-free medium): inhibition of proliferation

COc1cc(C)c(/C=C/C(C)=C/C=C/C(C)=C/C(=O)O)c(C)c1C [Acitretin, acitretin]
proliferation response of clones inhibited by retinoids (serum-free medium): inhibition of proliferation

CC1=C(/C=C/C(C)=C/C=C/C(C)=C/C(=O)O)C(C)(C)CCC1 [all-trans-retinoic acid]
proliferation response of clones stimulated by retinoids (serum-free medium): stimulated in proliferation | proliferation response of clones inhibited by retinoids (serum-free medium): inhibition of proliferation
